# Read-outs that look alike come from different tables or passages of the source.
# What was measured:
# LuHCV cells = experiment: Evaluation of cell growth suppression using LuHCV cells (percentage of viable cells, reagent SF); format: cell-based, human; settings: 48 hours, DMSO = 100%
# Protocol: At this time, as a background absorbance, measurement was also performed for wells containing test compounds (or DMSO used as a control), but containing no cells. Each of the thus obtained background numerical values was deducted from the absorbance of a cell-containing well (measured for the same compound at the same concentration). The resulting value was designated as actual measurement of number of viable cells containing no background. […] With an average value measured for DMSO used as a control test substance designated as 100%, the percentage of the number of viable cells for each test compound was calculated.
# At this time, as a background absorbance, measurement was also performed for wells containing test compounds (or containing DMSO used as a control), but containing no cells. Each of the thus obtained background numerical values was deducted from the absorbance of a cell-containing well (measured for the same compound at the same concentration). The resulting value was designated as actual measurement of number of viable cells containing no background. […] By using a value measured upon addition of DMSO used as a control test substance designated as 100%, the percentage of the number of viable cells for each test compound was calculated. Table 1-2 and FIG. 2B show the percentage of the number of viable cells (cell viability (% control)) for each test compound at each concentration.
# [1] = test system: intracellular HCV protein (NS3-NS4-NS5A-NS5B); experiment: HCV viral protein expression assay using LuHCV cells (luciferase activity); settings: for activity at 10 µM / activity at 20 µM: Hepatitis C virus, 48 h, read-out: luc activity (% control); for luciferase activity (result in words): 0, 10 and 20 μM
# Protocol: As an HCV viral protein expression assay, screening was performed for compounds having anti-HCV activity using human hepatocytes with which the replication and expression of the intracellular HCV protein (NS3-NS4-NS5A-NS5B) can be evaluated through determination of luciferase activity (hereinafter, referred to as LuHCV).
# LuHCV cells were plated onto 96-well plates at 5×10^3 cells/50 μL/well and then incubated overnight. Test compounds were each dissolved in dimethyl sulfoxide (DMSO) and dilution series were prepared using DMSO, if necessary. On the next day of plating of LuHCV cells, a medium containing a test compound with a concentration twice the final test concentration was added at 50 μL/well. Cells were gently cultured under culture conditions of 48 hours, 37° C., and 5% CO2 (the final concentrations of the test compounds: 0, 10, and 20 μM). At this time, analysis was made using 3 test wells for each test compound and for each concentration.
# Culture medium was removed after 48 hours. Glo lysis buffer (100 μL) (Promega) was added to each well and then cells were disrupted, so that a cell extract was obtained. With the use of 50 μL of the thus obtained cell extract, 50 μL of a Bright-Glo™ Luciferase Assay System (Promega) reagent was added. Luciferase activity in the extract was determined by measuring luminescence intensity for one second using a measuring device ARVO (PerkinElmer Co., Ltd.).
# Based on the thus obtained numerical values of luminescence intensity, an average value for each test compound at each concentration was calculated. The luminescence intensity percentage for each test compound was calculated based on a luminescence intensity for DMSO (used as a control for test substances) as 100%.
# Culture medium was removed after 48 hours. Glo Lysis buffer (100 μL) (Promega) was added to each well and then cells were disrupted, so that a cell extract was obtained. With the use of 50 μL of the thus obtained cell extract, 50 μL of a Bright-Glo™ Luciferase Assay System (Promega) reagent was added. Luciferase activity in the extract was determined by measuring luminescence intensity for one second using a measuring device ARVO (PerkinElmer Co., Ltd.).
# Based on the thus obtained numerical values of luminescence intensity, an average value for each test compound at each concentration was calculated. The luminescence intensity percentage for each test compound was calculated based on a luminescence intensity of DMSO (used as a control for test substances) as 100%.
# influenza virus = settings: for cell death due to influenza virus infection (result in words): 5 and 10 μM, 48 hours, MDCK cells
smiles,measurement,setting,value
"O=C(Nc1cc(C(F)(F)F)ccc1N1CCC[C@H]2CCCC[C@@H]21)c1ccncc1 (relative stereo) [Compound 19, N-[2-(trans-2-azabicyclo[4.4.0]decan-2-yl)-5-(trifluoromethyl)phenyl]isonicotinamide]",viability (% control),LuHCV cells; 10 μM,99.02 % control
same,viability (% control),LuHCV cells; 20 μM,91.02 % control
same,activity at 10 µM,[1],51%
same,activity at 20 µM,[1],33.5%
"FC(F)(F)c1ccc(N2CCC[C@H]3CCCC[C@@H]32)c(NC(=S)c2ccncc2)c1 (relative stereo) [Compound 21, N-[2-(trans-2-azabicyclo[4.4.0]-decan-2-yl)-5-(trifluoromethyl)phenyl]isonicotinthioamide]",viability (% control),LuHCV cells; 10 μM,94.44 % control
same,viability (% control),LuHCV cells; 20 μM,93.56 % control
same,activity at 10 µM,[1],56.8%
same,activity at 20 µM,[1],34%
"FC(F)(F)c1ccc(N2CC[C@H]3CCCC[C@@H]3C2)c(NC(=S)c2ccncc2)c1 (relative stereo) [Compound 22, N-[2-(trans-3-azabicyclo[4.4.0]decan-3-yl)-5-(trifluoromethyl)phenyl]isonicotinthioamide]",viability (% control),LuHCV cells; 10 μM,104.65 % control
same,viability (% control),LuHCV cells; 20 μM,96.39 % control
same,activity at 10 µM,[1],42.6%
same,activity at 20 µM,[1],21.9%
"O=C(NC(=S)Nc1cc(C(F)(F)F)ccc1N1CC[C@H]2CCCC[C@@H]2C1)c1ccccc1 (relative stereo) [Compound 23, 1-benzoyl-3-[2-(trans-3-azabicyclo[4.4.0]decan-3-yl)-5-(trifluoromethyl)phenyl]thiourea]",viability (% control),LuHCV cells; 10 μM,106.72 % control
same,viability (% control),LuHCV cells; 20 μM,104.93 % control
same,activity at 10 µM,[1],64%
same,activity at 20 µM,[1],49.4%
"FC(F)(F)c1ccc(N2CCCCC2)c(NC(=S)c2ccncc2)c1 [Compound 2, N-[2-(1-piperidinyl)-5-(trifluoromethyl)phenyl]isonicotinthioamide]",luciferase activity (result in words),"[1]; 48 hours, LuHCV cells",Decreases in luciferase activity
"O=C(NC(=S)Nc1cc(C(F)(F)F)ccc1N1CCCCC1)c1cccnc1 [Compound 3, 1-nicotinoyl-3-[2-(1-piperidinyl)-5-(trifluoromethyl)phenyl]thiourea]",viability (% control),LuHCV cells; 10 μM,103.79 % control
same,viability (% control),LuHCV cells; 20 μM,93.82 % control
same,activity at 10 µM,[1],69.3%
same,activity at 20 µM,[1],43.2%
"O=C(NC(=S)Nc1cc(C(F)(F)F)ccc1N1CCCCCC1)c1cccnc1 [Compound 4, N-nicotinoyl-N′[2-(azacycloheptan-1-yl)-5-(trifluoromethyl)phenyl]thiourea]",viability (% control),LuHCV cells; 10 μM,93.86 % control
same,viability (% control),LuHCV cells; 20 μM,89.76 % control
same,activity at 10 µM,[1],65.8%
same,activity at 20 µM,[1],44.5%
"O=C(NC(=S)Nc1cc(C(F)(F)F)ccc1N1CCCCCCCC1)c1cccnc1 [Compound 6, N-nicotinoyl-N′-[2-(azacyclononan-1-yl)-5-(trifluoromethyl)phenyl]thiourea]",viability (% control),influenza virus; 5 µM,42.1 ± 1.5 % control
same,viability (% control),influenza virus; 10 µM,80.9 ± 3.2 % control
same,cell death due to influenza virus infection (result in words),influenza virus,cell death was decreased
same,luciferase activity (result in words),"[1]; 48 hours, LuHCV cells",Decreases in luciferase activity
same,decrease in luminescence intensity compared with the control,"[1]; 10 μM, 48 hours, LuHCV cells",about 50%
"O=C(NC(=S)Nc1cc(C(F)(F)F)ccc1N1CCCCCCC1)c1ccncc1 [Compound 7, N-isonicotinoyl-N′-[2-(azacyclooctan-1-yl)-5-(trifluoromethyl)phenyl]thiourea]",viability (% control),LuHCV cells; 10 μM,76.97 % control
same,viability (% control),LuHCV cells; 20 μM,71.85 % control
same,activity at 10 µM,[1],30.7%
same,activity at 20 µM,[1],16.4%
"O=C(NC(=O)c1cccnc1)Nc1cc(C(F)(F)F)ccc1N1CCCCCCC1 [Compound 8, N-nicotinoyl-N′-[2-(azacyclooctan-1-yl)-5-(trifluoro-methyl)phenyl]urea]",viability (% control),LuHCV cells; 10 μM,77.35 % control
same,viability (% control),LuHCV cells; 20 μM,77.81 % control
same,activity at 10 µM,[1],55.7%
same,activity at 20 µM,[1],58%
O=C(NC(=S)Nc1cc(F)ccc1N1CCCCCCC1)c1cccnc1 [Compound 9],viability (% control),LuHCV cells; 10 μM,82.79 % control
same,viability (% control),LuHCV cells; 20 μM,73.39 % control
same,activity at 10 µM,[1],33.6%
same,activity at 20 µM,[1],26%
"Cc1ccc(C(=O)NC(=S)Nc2cc(C(F)(F)F)ccc2N2CCCCCCC2)cn1 [Compound 10, N-(6-methylnicotinoyl)-N′-[2-(azacyclo-octan-1-yl)-5-(trifluoro-methyl)phenyl]thiourea]",viability (% control),LuHCV cells; 10 μM,96.19 % control
same,viability (% control),LuHCV cells; 20 μM,89.38 % control
same,activity at 10 µM,[1],41.2%
same,activity at 20 µM,[1],26.9%
Cc1ccc(C(=O)NC(=S)Nc2cc(C(F)(F)F)ccc2N2CCCCCCC2)cc1 [Compound 11],viability (% control),LuHCV cells; 10 μM,89.95 % control
same,viability (% control),LuHCV cells; 20 μM,89.20 % control
same,activity at 10 µM,[1],35.8%
same,activity at 20 µM,[1],29.8%
"COc1ccc(C(=O)NC(=S)Nc2cc(C(F)(F)F)ccc2N2CCCCCCC2)cc1 [Compound 12, N-(4-methoxybenzoyl)-N′-[2-(azacyclooctan-1-yl)-5-(trifluoromethyl)phenyl]thiourea]",viability (% control),LuHCV cells; 10 μM,94.69 % control
same,viability (% control),LuHCV cells; 20 μM,88.78 % control
same,activity at 10 µM,[1],32.8%
same,activity at 20 µM,[1],28.6%
"O=C(NC(=S)Nc1cc(C(F)(F)F)ccc1N1CCCCCCC1)c1ccc(F)cc1 [Compound 13, N-(4-fluorobenzoyl)-N′-[2-(azacyclooctan-1-yl)-5-(trifluoromethyl)phenyl]thiourea]",viability (% control),LuHCV cells; 10 μM,101.56 % control
same,viability (% control),LuHCV cells; 20 μM,104.05 % control
same,activity at 10 µM,[1],34.1%
same,activity at 20 µM,[1],28.5%
"O=C(NC(=S)Nc1cc(C(F)(F)F)ccc1N1CCCCCCC1)c1ccccc1 [Compound 14, N-benzoyl-N′-[2-(azacyclooctan-1-yl)-5-(trifluoromethyl)phenyl]thiourea]",viability (% control),LuHCV cells; 10 μM,103.81 % control
same,viability (% control),LuHCV cells; 20 μM,103.76 % control
same,viability (% control),influenza virus; 5 µM,71.6 ± 2.2 % control
same,viability (% control),influenza virus; 10 µM,100.0 ± 2.0 % control
same,cell death due to influenza virus infection (result in words),influenza virus,cell death was decreased
same,activity at 10 µM,[1],30.3%
same,activity at 20 µM,[1],14.8%
"COc1ccccc1C(=O)NC(=S)Nc1cc(C(F)(F)F)ccc1N1CCCCCCC1 [Compound 15, N-(2-methoxybenzoyl)-N′-[2-(azacyclooctan-1-yl)-5-(trifluoromethyl)phenyl]thiourea]",viability (% control),LuHCV cells; 10 μM,107.86 % control
same,viability (% control),LuHCV cells; 20 μM,107.33 % control
same,activity at 10 µM,[1],45.8%
same,activity at 20 µM,[1],37.6%
"O=C(NC(=S)Nc1cc(C(F)(F)F)ccc1F)c1cccnc1 [Compound 16, N-nicotinoyl-N′-[2-fluoro-5-(trifluoro-methyl)phenyl]thiourea]",viability (% control),LuHCV cells; 10 μM,85.21 % control
same,viability (% control),LuHCV cells; 20 μM,79.86 % control
same,activity at 10 µM,[1],58.1%
same,activity at 20 µM,[1],48.9%
O=C(NC(=S)Nc1cc(C(F)(F)F)ccc1N1CCCCCCC1)c1ccoc1 [Compound 17],viability (% control),LuHCV cells; 10 μM,112.89 % control
same,viability (% control),LuHCV cells; 20 μM,108.81 % control
same,activity at 10 µM,[1],26.1%
same,activity at 20 µM,[1],17.6%
"O=C(Nc1cc(C(F)(F)F)ccc1N1CCCCCCCC1)c1ccncc1 [Compound 20, W[2-(azacyclononan-1-yl)-5-(trifluoromethyl)-phenyl]isonicotinamide]",viability (% control),LuHCV cells; 10 μM,111.50 % control
same,viability (% control),LuHCV cells; 20 μM,105.35 % control
same,activity at 10 µM,[1],48.3%
same,activity at 20 µM,[1],22.7%
"O=C(NC(=S)Nc1cc(C(F)(F)F)ccc1N1CCCCCCCC1)c1ccccc1 [Compound 24, 1-benzoyl-3-[2-(azacyclononan-1-yl)-5-(trifluoro-methyl)phenyl]thiourea]",viability (% control),LuHCV cells; 10 μM,108.20 % control
same,viability (% control),LuHCV cells; 20 μM,110.15 % control
same,activity at 10 µM,[1],56.4%
same,activity at 20 µM,[1],39.4%

# From patent publication US8765941B2 (Kino Pharma, Inc., priority 2008, dated 2014)
